Reference: article PMC8064475, “Synthesis of Biobased Phloretin Analogues: An Access to Antioxidant and Anti-Tyrosinase Compounds for Cosmetic Applications” (Antioxidants, 2021)
“Also recorded” adds a separate entry of the source.

Assays:
[1] = Photostability: absorbance loss after UV irradiation; type: physicochemical; settings: 10 µM in ethanol; 1 h irradiation at 300 nm; absorbance at λmax before vs after
Experimental: (§1) UV-Vis spectra were recorded at 10 µM in ethanol on a Cary 60 UV-Vis spectrophotometer by Agilent (Wilmington, DE, USA) in a 1 cm quartz cuvette. The absorbance loss was evaluated by comparison of absorbances at the λmax before and after 1 h of irradiation into a Rayonet® RPR-200 (λ = 300 nm, P = 8.32 W.m^−2, stirring, T = 35 °C) (SNE Ultraviolet Co. Branford, CT, USA) using 14 RPR-3000A lamps.

mushroom tyrosinase = assay: Mushroom tyrosinase inhibition assay; type: biochemical; settings: tyrosine substrate; ammonium formate buffer pH 6.4; 37 °C; dopachrome at 420 nm
Experimental: Tyrosinase inhibition activity was evaluated using the method used by Peyrot et al.. […] Then, 20 µL of tyrosine at 4.42 mM in ammonium formate buffer was added. […] IC50 values, corresponding to the concentration required to inhibit 50% of tyrosinase activity, were obtained using GraphPad Prism® software version 6.01.

[2] = UV-Vis spectra at 10 µM in ethanol; type: physicochemical; settings: 1 cm quartz cuvette, band I
Experimental: as §1

[3] = DPPH radical scavenging assay; type: biochemical; settings: in ethanol; DPPH 200 µM; read at 520 nm over 7.5 h; read-out: EC50 for DPPH inhibition
Experimental: The radical scavenging activity of all compounds was tested through 2,2-diphenyl-1-picryhydrazyl (DPPH) assay which determines the EC50 values as previously described. The test consists of adding 190 µL of DPPH solution (200 µM) in ethanol to 10 µL of potential antiradical molecule solution at different concentrations (from 800 to 12.5 µM). The reaction was carried out in 96-well microplates and the disappearance of DPPH radicals was monitored at 520 nm every 5 min during 7.5 h in a multiplate Biotek (Winooski, VT, USA), Epoch 2 spectrophotometer. The EC50 values, corresponding to the concentration needed to reduce half of the initial population of DPPH radicals, were provided by the crossing point of the curves of %DPPH and %reduced DPPH. Curves dots were obtained using an average of the last six measurements for each concentration in Regressi® software version 3.99.

Compound | Loss of absorbance [1] | IC50 (mushroom tyrosinase) [µM] | Maximal absorbance [2] | EC50 [3] [µM] | IC50 for mushroom tyrosinase inhibition (mushroom tyrosinase)
3,4,4′-trihydroxy-3-methoxy-chalcone [a7] | 46.2% | 2300 ± 100 | 0.38 | 31.5 | 
COc1ccc(C(=O)CC(=O)c2ccc(C(C)(C)C)cc2)cc1 [Avobenzone, avobenzone, reference compound] | 0.6% |  | 0.37 |  | 
COc1ccc(O)c(C(C)(C)C)c1 [BHA, butylated hydroxyanisol, reference compound] |  |  |  | 18.5 | 
Cc1cc(C(C)(C)C)c(O)c(C(C)(C)C)c1 [BHT, butylated hydroxytoluene, reference compound] |  |  |  | 28 | 
CCCCC(CC)COC(=O)C=Cc1ccc(OC)cc1 (stereo not drawn) [Octinoxate, octinoxate, reference compound] | 26.0% |  | 0.24 |  | 
O=C(CCc1ccc(O)cc1)c1c(O)cc(O)cc1O [Phloretin, phloretin] | 5.9% | > 10000 | 0.23 | 24.5 | did not exhibit tyrosinase inhibition activity
O=C(/C=C/c1ccc(O)cc1)c1ccc(O)cc1 [a1, 4,4′-dihydroxy-chalcone] | 77.6% | 100 ± 10 | 0.65 | > 80 | 
O=C(/C=C/c1ccc(O)c(O)c1)c1ccc(O)cc1 [a2, 3,4,4′-trihydroxy-chalcone] |  |  |  | 31.5 | 
O=C(/C=C/c1ccc(O)cc1)c1ccc(O)c(O)c1 [a3, 3′,4,4′-trihydroxy-chalcone] |  | > 10000 |  | 15.5 | did not show any activity
O=C(/C=C/c1ccc(O)c(O)c1)c1ccc(O)c(O)c1 [a4, 3,3′,4,4′-tetrahydroxy-chalcone] | 75.7% |  | 0.47 | 8 | 
COc1cc(/C=C/C(=O)c2ccc(O)cc2)ccc1O [a5, 4,4′-dihydroxy-3-methoxy-chalcone] |  | 2300 ± 100 |  | 71 | 
COc1cc(C(=O)/C=C/c2ccc(O)cc2)ccc1O [a6, 4,4′-dihydroxy-3′-methoxy-chalcone] | 16.1% | 140 ± 10 |  | > 80 | 
COc1cc(/C=C/C(=O)c2ccc(O)c(O)c2)ccc1O [a8, 3′,4,4′-trihydroxy-3-methoxy-chalcone] |  | > 10000 |  | 9.5 | 
COc1cc(C(=O)/C=C/c2ccc(O)cc2)cc(OC)c1O [a9, 4,4′-dihydroxy-3′,5′-dimethoxy-chalcone] |  | 130 ± 10 |  | > 80 | 
COc1cc(/C=C/C(=O)c2ccc(O)c(OC)c2)ccc1O [a10, 4,4′-dihydroxy-3,3′-dimethoxy-chalcone] |  | 1800 ± 90 |  | 43.5 | 
COc1cc(C(=O)/C=C/c2cc(OC)c(O)c(OC)c2)ccc1O [a11, 4,4′-dihydroxy-3,3′,5-trimethoxy-chalcone] |  | 7900 ± 400 | 0.27 | 45 | 
COc1cc(/C=C/C(=O)c2cc(OC)c(O)c(OC)c2)cc(OC)c1O [a12, 4,4′-dihydroxy-3,3′,5,5′-tetramethoxy-chalcone] |  | > 10000 |  | 43 | 
O=C(CCc1ccc(O)cc1)c1ccc(O)cc1 [b1, 4,4′-dihydroxy-dihydrochalcone] | 13.8% | > 10000 | 0.23 | > 80 | 
O=C(CCc1ccc(O)c(O)c1)c1ccc(O)cc1 [b2, 3,4,4′-trihydroxy-dihydrochalcone] | 11.4% | > 10000 | 0.21 | 35 | 
O=C(CCc1ccc(O)cc1)c1ccc(O)c(O)c1 [b3, 3′,4,4′-trihydroxy-dihydrochalcone] | Negative loss of absorbance; also recorded: higher absorbance higher after 1 h of irradiation | > 10000 |  | 16 | 
O=C(CCc1ccc(O)c(O)c1)c1ccc(O)c(O)c1 [b4, 3,3′,4,4′-tetrahydroxy-dihydrochalcone] | Negative loss of absorbance; also recorded: higher absorbance higher after 1 h of irradiation | > 10000 |  | 15 | 
COc1cc(CCC(=O)c2ccc(O)cc2)ccc1O [b5, 4,4′-dihydroxy-3-methoxy-dihydrochalcone] |  | 500 ± 30 |  | 28 | 
COc1cc(C(=O)CCc2ccc(O)cc2)ccc1O [b6, 4,4′-dihydroxy-3′-methoxy-dihydrochalcone] |  | > 10000 |  | > 80 | 
COc1cc(C(=O)CCc2ccc(O)c(O)c2)ccc1O [b7, 3,4,4′-trihydroxy-3-methoxy-dihydrochalcone] |  | > 10000 |  | 32 | 
COc1cc(CCC(=O)c2ccc(O)c(O)c2)ccc1O [b8, 3′,4,4′-trihydroxy-3-methoxy-dihydrochalcone] | 0.1% | 70 ± 10 |  | 11 | 
COc1cc(C(=O)CCc2ccc(O)cc2)cc(OC)c1O [b9, 4,4′-dihydroxy-3′,5′-dimethoxy-dihydrochalcone] | 67.7% | > 10000 | 0.19 | > 80 | 
COc1cc(CCC(=O)c2ccc(O)c(OC)c2)ccc1O [b10, 4,4′-dihydroxy-3,3′-dimethoxydihydrochalcone] | 20% | 270 ± 10 | 0.13 | 29.5 | 
COc1cc(C(=O)CCc2cc(OC)c(O)c(OC)c2)ccc1O [b11, 4,4′-dihydroxy-3,3′,5-trimethoxy-dihydrochalcone] | Full loss of absorbance | > 10000 |  | 33 | 
COc1cc(CCC(=O)c2cc(OC)c(O)c(OC)c2)cc(OC)c1O [b12, 4,4′-dihydroxy-3,3′,5,5′-tetramethoxy-dihydrochalcone] |  | > 10000 |  | 42.5 | 
